Measurements from patent US7906488B2, “Sphingolipids in treatment and prevention of steatosis and of steatosis or of hepatotoxicity and its sequelae” (Nederlandse Organisatie Voor …, priority 2004, dated 2011).

Legend:
[1] = tested on: galactosamine-injured primary rat hepatocytes; conditions: cited from earlier work
APOE*3Leiden mice = experiment: Effect of dietary sphingolipids on plasma C and TG levels (0.1, 0.2, 0.4% in diet); assay type: in vivo; conditions: 0.4% sphingolipid in diet, compared with 0.2%
Text: Sphingolipids: The three sphingolipids that represent the most abundant natural complex sphingolipid classes and the three of the simplest natural sphingolipids, the sphingoid bases that can be formed by enzymatic breakdown of complex sphingolipids in the intestine were used. Sphingomyelin (mainly N-palmitoyl-sphingosine-1-phosphocholine) from egg was obtained from Larodan Fine Chemicals (Stockholm, Sweden). Yeast-derived (semi)synthetic ceramide III (N-stearoyl-phytosphingosine), cerebroside (N-stearoyl-phytosphingosine-1-glucose) and phytosphingosine (PS) were from Cosmoferm BV (Delft, the Netherlands). Sphinganine and sphingosine were from Avanti Polar Lipids (Albaster, Ala.). Animals and diets: Heterozygous female APOE*3Leiden transgenic mice (Van Vlijmen et al. 1994. J. Clin. Invest 93:1403-1410.) (6 months old) were fed a Western-type diet (Hope Farms, Woerden, the Netherlands) containing 15% cocoa butter, 0.25% cholesterol, 1% corn oil, 40.5% sucrose, 20% acid casein, 10% corn starch and 5.95% cellulose (all w/w) for 5 weeks. The mice were allowed free access to food and water. Body weight and food intake were monitored weekly. In the first experiment (FIG. 2), the mice were randomized after these 5 weeks into 7 groups (n=6), based on plasma cholesterol, triglycerides, and body weight. Subsequently, the mice were fed for three weeks the same diet without or with 0.1% (w/w) phytosphingosine (PS), sphingosine, sphinganine, cerebroside, ceramide III, or sphingomyelin. […]
Plasma parameters: Tail blood samples were collected in EDTA-coated cups, or in paraoxon-coated capillaries to prevent lipolysis as described in Zambon et al. 1993 (Zambon et al. 1993. J. Lipid Res. 34:1021-1028). Plasma lipid parameters were determined using commercial kits for total cholesterol (C) Chol R1 from Roche Diagnostics, Mannheim, Germany), non-esterified free fatty acids (FFA) (NEFA-C; Wako chemicals, Neuss, Germany), Total triglycerides (TG) (Triglyceride GPO-Trinder; Sigma, St. Louis, Mo.), β-hydroxybutyrate (β-HB; Sigma) and ALAT (Reflotron GPT; Roche). Serum amyloid A (SAA) was measured by ELISA (Biosource, Nivelles, Belgium) and fibrinogen by sandwich ELISA, as described in Koopman et al., 2005 (Koopman et al. 2005. Fibrinol Proteol 11:19). […] Hepatic VLDL-TG production: The rate of hepatic VLDL-TG production, de novo apoB secretion, and VLDL composition were determined in overnight-fasted mice. […] After 30 min, the animals received a Triton WR1339 injection (Tyloxapol, Sigma; 500 mg/kg body weight in 100 μl saline) to prevent systemic lipolysis of newly-secreted hepatic VLDL-TG (Aalto-Setala et al. 1992. J. Clin. Invest 90:1889-1900.27) Blood samples were drawn at 0, 15, 30, 60, and 90 min after Triton WR1339 injection and plasma TG concentrations were determined. […]

rats = conditions: administration to the food of rats; cited from earlier work
C57bI mice = conditions: intraperitoneal injection; cited from earlier work

| Compound | Plasma C (APOE*3Leiden mice) | further results |
| --- | --- | --- |
| CCCCCCCCC/C=C\CC/C=C/[C@@H](O)[C@H](CO[C@@H]1O[C@H](CO)[C@@H](O)[C@H](O)[C@H]1O)NC(=O)CCCCCCCCCCCCCCC [LCC, 1-O-(β-D-glucopyranosyl)-(2S,3R,4E,8Z)-2-N-palmityloctadecasphinga-4,8-diene] | – | Release into the culture medium of GPT and SDH [1]: reduce the release |
| CCCCCCCCCCCCCCCCCC(=O)N[C@@H](CO)[C@H](O)[C@H](O)CCCCCCCCCCCCCC [ceramide III, N-stearoyl-phytosphingosine] | decreased even more | – |
| CCCCCCCCCCCCC/C=C/[C@@H](O)[C@H](COP(=O)([O-])OCC[N+](C)(C)C)NC(=O)CCCCCCCCCCCCCCC [sphingomyelin, N-palmitoyl-sphingosine-1-phosphocholine] | decreased even more | Chances of occurrence of malignant, chemically induced colon cancer (rats): significantly decrease |
| CCCCCCCCCCCCC/C=C/[C@@H](O)[C@@H](N)CO [sphingosine] | decreased even more | – |
| glucocerebroside | – | Liver fat content (C57bI mice): reduced |
